Laboratory results published in article PMC7933229 (Scientific Reports, 2021).
Like-named read-outs stand apart in the source and are kept apart here. Residues, ends and D or L forms follow the SMILES beside them.

What was measured:
ACE (from rabbit lung) = molecular target: T1, ACE (from rabbit lung) (Oryctolagus cuniculus, UniProt P12822); assay: ACE inhibitory activity (HHL substrate, RP-HPLC of hippuric acid); format: biochemical
T1 construct: ACE (from rabbit lung) were obtained from Sigma-Aldrich Co; purchased Sigma-Aldrich Co. (St. Louis, MO, USA); host or cells: rabbit lung (tissue-derived enzyme)
T1 sequence (P12822 34-1310): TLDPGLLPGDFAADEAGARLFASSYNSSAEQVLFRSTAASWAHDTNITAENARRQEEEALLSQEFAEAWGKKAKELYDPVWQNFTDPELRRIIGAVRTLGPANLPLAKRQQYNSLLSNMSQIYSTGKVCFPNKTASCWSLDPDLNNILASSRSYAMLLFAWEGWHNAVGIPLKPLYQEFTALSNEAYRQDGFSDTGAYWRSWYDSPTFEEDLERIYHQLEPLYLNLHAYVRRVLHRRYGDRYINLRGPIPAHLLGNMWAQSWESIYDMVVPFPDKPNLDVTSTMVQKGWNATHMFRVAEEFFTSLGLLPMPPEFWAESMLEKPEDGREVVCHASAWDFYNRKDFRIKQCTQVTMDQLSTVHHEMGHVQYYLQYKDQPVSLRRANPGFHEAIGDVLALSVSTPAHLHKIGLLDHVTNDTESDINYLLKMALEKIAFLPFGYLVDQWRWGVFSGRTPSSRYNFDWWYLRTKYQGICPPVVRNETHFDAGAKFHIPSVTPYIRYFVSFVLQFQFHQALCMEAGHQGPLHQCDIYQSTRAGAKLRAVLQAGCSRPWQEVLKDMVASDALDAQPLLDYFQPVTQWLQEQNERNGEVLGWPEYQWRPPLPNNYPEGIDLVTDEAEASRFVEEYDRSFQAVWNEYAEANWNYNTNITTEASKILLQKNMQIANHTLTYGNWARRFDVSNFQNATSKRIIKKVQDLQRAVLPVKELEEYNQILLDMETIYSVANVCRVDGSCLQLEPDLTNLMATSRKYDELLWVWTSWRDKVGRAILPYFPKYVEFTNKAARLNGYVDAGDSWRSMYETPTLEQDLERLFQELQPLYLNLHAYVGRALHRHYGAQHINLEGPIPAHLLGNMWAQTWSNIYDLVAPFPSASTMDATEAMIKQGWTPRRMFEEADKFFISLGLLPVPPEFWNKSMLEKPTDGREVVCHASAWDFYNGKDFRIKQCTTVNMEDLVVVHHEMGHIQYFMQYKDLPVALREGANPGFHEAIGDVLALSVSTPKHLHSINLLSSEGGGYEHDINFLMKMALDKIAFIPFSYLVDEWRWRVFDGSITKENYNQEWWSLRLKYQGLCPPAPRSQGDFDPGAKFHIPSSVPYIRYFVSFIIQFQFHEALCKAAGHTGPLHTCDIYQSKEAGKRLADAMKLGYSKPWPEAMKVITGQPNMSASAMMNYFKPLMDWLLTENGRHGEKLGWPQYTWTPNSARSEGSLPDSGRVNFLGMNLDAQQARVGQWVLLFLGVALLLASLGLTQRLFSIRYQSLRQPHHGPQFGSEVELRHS
From the text: Wheat gluten was obtained from CF Haishi Biotechnology Ltd. Co. (Beijing, China) and kept in sealed plastic bags at room temperature until use. Alcalase 2.4L (2.4 AU/g) was purchased from Novo Nordisk (Copenhagen, Denmark). Protex 7L (1600 AU/g) and α-amylase (26,000 RAU/g) were bought from Genencor Division of Danisco (Rochester, NY, USA). Fluorescein sodium salt, Trolox, DPPH, 2,2′-azobis(2-methylpropionamidine) dihydrochloride (AAPH), hippuryl-histidyl-leucine (HHL), hippuric acid (HA), and ACE (from rabbit lung) were obtained from Sigma-Aldrich Co. (St. Louis, MO, USA). The ABTS assay kit was supplied by Beyotime Biotechnology (Haimen, China). Acetonitrile and methanol were provided by Fisher Scientific (Pittsburgh, PA, USA). Trifluoroacetic acid (TFA) was supplied by Alfa Aesar (Ward Hill, MA, USA). Synthesized peptides were obtained from Scilight Biotechnology Co., Ltd (Beijing, China). The purity of the synthesized peptides was more than 98% according to HPLC analysis. All other chemicals were of analytical grade.
The modified approach of Cushman and Cheung[68] was used to analyze ACE inhibitory activity. Briefly, the preincubation of 20 µL of sample and 30 µL of ACE solution (60 mU/mL) was performed at 37 °C for 5 min. After adding 50 µL of the substrate (7.6 mmol/L HHL in 50 mmol/L sodium borate buffer containing 300 mmol/L NaCl at pH 8.3), the 30-min incubation of the mixture was performed at ambient temperature. The reaction was ceased with 100 µL of 1.0 mol/L HCl. RP-HPLC was employed to determine the amount of HA liberated by ACE on an Inertsil ODS-SP C18 column (4.6 mm × 150 mm, Shimadzu, Kyoto, Japan). The peak area was subject to the calculation of ACE inhibitory activity.

ACE = conditions: cited from earlier work
[1] = molecular target: T2, angiotensin I-converting enzyme (ACE) from rabbit lung (rabbit) (UniProt P12822)
T2 sequence: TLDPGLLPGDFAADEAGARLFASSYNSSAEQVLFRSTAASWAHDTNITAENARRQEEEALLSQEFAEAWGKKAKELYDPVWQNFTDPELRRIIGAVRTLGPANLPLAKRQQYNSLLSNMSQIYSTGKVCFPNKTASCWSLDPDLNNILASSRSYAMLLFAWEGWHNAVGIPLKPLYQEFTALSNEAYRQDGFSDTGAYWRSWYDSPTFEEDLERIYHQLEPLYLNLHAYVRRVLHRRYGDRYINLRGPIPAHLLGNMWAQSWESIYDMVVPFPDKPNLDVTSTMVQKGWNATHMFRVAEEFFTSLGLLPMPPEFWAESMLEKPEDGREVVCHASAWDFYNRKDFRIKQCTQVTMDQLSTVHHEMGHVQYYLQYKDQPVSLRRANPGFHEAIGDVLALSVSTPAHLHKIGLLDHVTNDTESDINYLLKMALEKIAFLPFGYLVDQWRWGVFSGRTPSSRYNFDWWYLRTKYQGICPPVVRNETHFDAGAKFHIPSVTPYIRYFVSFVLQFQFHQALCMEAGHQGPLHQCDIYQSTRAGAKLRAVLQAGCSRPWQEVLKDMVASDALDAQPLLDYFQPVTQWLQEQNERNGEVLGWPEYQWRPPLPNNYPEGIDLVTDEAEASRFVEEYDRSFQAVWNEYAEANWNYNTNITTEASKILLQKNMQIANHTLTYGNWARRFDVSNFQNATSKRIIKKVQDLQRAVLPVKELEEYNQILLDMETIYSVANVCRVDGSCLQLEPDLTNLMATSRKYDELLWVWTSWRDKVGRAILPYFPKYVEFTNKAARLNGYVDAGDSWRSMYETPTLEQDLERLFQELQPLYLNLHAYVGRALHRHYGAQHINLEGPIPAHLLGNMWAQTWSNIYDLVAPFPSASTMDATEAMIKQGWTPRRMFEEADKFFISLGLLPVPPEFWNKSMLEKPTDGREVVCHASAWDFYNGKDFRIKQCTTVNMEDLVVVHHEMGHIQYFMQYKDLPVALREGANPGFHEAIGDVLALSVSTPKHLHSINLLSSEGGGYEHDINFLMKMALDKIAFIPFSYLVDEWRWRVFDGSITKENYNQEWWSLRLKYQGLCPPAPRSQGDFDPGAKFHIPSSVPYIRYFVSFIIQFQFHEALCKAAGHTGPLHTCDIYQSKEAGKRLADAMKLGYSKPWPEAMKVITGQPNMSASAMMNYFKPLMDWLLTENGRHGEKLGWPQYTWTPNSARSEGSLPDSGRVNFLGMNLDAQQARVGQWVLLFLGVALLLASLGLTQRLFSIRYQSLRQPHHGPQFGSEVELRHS

[2] = calculated from mmol/L values, read-out: ACE IC50 calculated in the units of mg/mL (converted)
[3] = synthesized peptides, read-out: ACE IC50

Molecule	IC50 (ACE (from rabbit lung); [2])	IC50 (ACE (from rabbit lung); [3])	IC50 of ACE inhibitory activity (hippuric acid liberated from HHL by ACE, RP-HPLC) [1]	further results
C[C@H](N)C(=O)N1CCC[C@H]1C(=O)N[C@@H](CO)C(=O)N[C@@H](Cc1ccc(O)cc1)C(=O)O [Ala-Pro-Ser-Tyr] (H-APSY-OH)	1470 µM	1470 ± 80 µM		
N=C(N)NCCC[C@H](N)C(=O)NCC(=O)NCC(=O)N[C@@H](Cc1ccc(O)cc1)C(=O)O [Arg-Gly-Gly-Tyr] (H-RGGY-OH)	1480 µM	1480 ± 110 µM		
CC(C)C[C@H](N)C(=O)N[C@H](C(=O)N[C@@H](CO)C(=O)O)C(C)C [Leu-Val-Ser] (H-Leu-Val-Ser-OH)	599 µM	600 ± 30 µM		
NC(=O)CC[C@H](NC(=O)[C@@H](N)Cc1ccc(O)cc1)C(=O)O [Tyr-Gln] (H-Tyr-Gln-OH)	2000 µM	2000 ± 130 µM		
Ala-His-Ser-Tyr (AHSY; printed: Ala-His-Ser-Tyr)				IC50 (ACE; isolated from cuttlefish): 11.6 µM
Gly-Gly-Tyr				IC50 (ACE): 1.3 µM
Leu-Tyr (peptide)			310 µM	
Leu-Val-Ser (peptide)			600 µM	
Tyr-Gln (peptide)			2000 µM	
RGGY [Arg-Gly-Gly-Tyr]			1480 µM	
APSY [Ala-Pro-Ser-Tyr]			1470 µM	
